Reference: PubChem BioAssay (NCI)
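Assay format: 96-well plates, 48-hour exposure. TGI is the concentration that stops growth completely.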

Tests used:
Assay in all cases: NCI anticancer screen, dose series, 48 h
[1] = test system: SF-539 CNS
[2] = test system: NCI/ADR-RES ovarian
[3] = test system: TK-10 renal
[4] = test system: SF-268 CNS
[5] = test system: UACC-257 melanoma
[6] = test system: NCI-H522 lung
[7] = test system: SK-OV-3 ovarian
[8] = test system: MALME-3M melanoma
[9] = test system: HCC-2998 colon
[10] = test system: LOX IMVI melanoma
[11] = test system: ACHN renal
[12] = test system: NCI-H226 lung
[13] = test system: KM12 colon
[14] = test system: PC-3 prostate
[15] = test system: RPMI-8226 leukemia
[16] = test system: CCRF-CEM leukemia
[17] = test system: SNB-19 CNS
[18] = test system: IGROV1 ovarian
[19] = test system: SF-295 CNS
[20] = test system: HL-60(TB) leukemia
[21] = test system: MCF7 breast
[22] = test system: MDA-MB-435
[23] = test system: NCI-H23 lung
[24] = test system: T-47D breast
[25] = test system: EKVX NSCLC
[26] = test system: SN12C renal
[27] = test system: HCT-116 colon
[28] = test system: CAKI-1 renal
[29] = test system: MDA-MB-231 breast
[30] = test system: HCT-15 colon
[31] = test system: SK-MEL-28 melanoma
[32] = test system: HT29 colon
[33] = test system: UO-31 renal
[34] = test system: OVCAR-3 ovarian
[35] = test system: NCI-H460 lung
[36] = test system: OVCAR-8 ovarian
[37] = test system: BT-549 breast
[38] = test system: A498 renal
[39] = test system: U251 CNS
[40] = test system: COLO 205 colon
[41] = test system: SK-MEL-2 melanoma
[42] = test system: UACC-62 melanoma
[43] = test system: SW-620 colon
[44] = test system: DU-145 prostate
[45] = test system: 786-0 renal
[46] = test system: MOLT-4 leukemia
[47] = test system: K-562 leukemia
[48] = test system: RXF 393 renal
[49] = test system: MDA-N
[50] = test system: SK-MEL-5 melanoma
[51] = test system: OVCAR-5 ovarian
[52] = test system: HS 578T breast
[53] = test system: A549 NSCLC
[54] = test system: SNB-75 CNS
[55] = test system: OVCAR-4 ovarian
[56] = test system: M14 melanoma
[57] = test system: HOP-92 NSCLC
[58] = test system: HOP-62 NSCLC
[59] = test system: SR leukemia

O=c1c2c3c(sc2nc2n1NC=NN2)CCCC3
TGI [1]: 36.9 µM
TGI [2]: 65.5 µM
TGI [3]: > 56 µM
TGI [4]: 34.8 µM
TGI [5]: 41.9 µM
TGI [6]: 36.4 µM
TGI [7]: > 65.5 µM
TGI [8]: 55.3 µM
TGI [9]: 51.7 µM
TGI [10]: 4.88 µM
TGI [11]: 30.3 µM
TGI [12]: 49.8 µM
TGI [13]: 34.1 µM
TGI [14]: > 56.7 µM
TGI [15]: 50.6 µM
TGI [16]: 4.88 µM
TGI [17]: > 71.5 µM
TGI [18]: > 56.6 µM
TGI [19]: 30.2 µM
TGI [20]: 7.34 µM
TGI [21]: > 54.2 µM
TGI [22]: 26.4 µM
TGI [23]: > 62.6 µM
TGI [24]: > 65.8 µM
TGI [25]: 35.9 µM
TGI [26]: 39.6 µM
TGI [27]: 32.4 µM
TGI [28]: 33.8 µM
TGI [29]: 19.1 µM
TGI [30]: 37.5 µM
TGI [31]: 36.1 µM
TGI [32]: 38.9 µM
TGI [33]: > 64.3 µM
TGI [34]: 30.5 µM
TGI [35]: 38.3 µM
TGI [36]: 58.2 µM
TGI [37]: 31.8 µM
TGI [38]: > 89.4 µM
TGI [39]: 35 µM
TGI [40]: 55.3 µM
TGI [41]: > 66.6 µM
TGI [42]: 35.8 µM
TGI [43]: 38.7 µM
TGI [44]: > 90.4 µM
TGI [45]: 31.9 µM
TGI [46]: 31.7 µM
TGI [47]: 6.81 µM
TGI [48]: > 61.9 µM
TGI [49]: 30.9 µM
TGI [50]: 31.7 µM
TGI [51]: 35.9 µM
TGI [52]: 52.7 µM
TGI [53]: > 100 µM
TGI [54]: 59.1 µM
TGI [55]: 34.1 µM
TGI [56]: > 57 µM
TGI [57]: 38.5 µM

C=CCSC(C)=O
TGI [1]: > 100 µM
TGI [2]: > 100 µM
TGI [3]: > 100 µM
TGI [4]: > 100 µM
TGI [6]: > 100 µM
TGI [7]: > 100 µM
TGI [8]: > 100 µM
TGI [9]: > 100 µM
TGI [10]: > 100 µM
TGI [11]: > 100 µM
TGI [12]: > 100 µM
TGI [13]: > 100 µM
TGI [14]: > 100 µM
TGI [15]: > 100 µM
TGI [16]: > 100 µM
TGI [17]: > 100 µM
TGI [18]: > 100 µM
TGI [19]: > 100 µM
TGI [20]: > 100 µM
TGI [21]: > 100 µM
TGI [22]: > 100 µM
TGI [23]: > 100 µM
TGI [24]: > 100 µM
TGI [25]: > 100 µM
TGI [26]: > 100 µM
TGI [27]: > 100 µM
TGI [28]: > 100 µM
TGI [29]: > 100 µM
TGI [30]: > 100 µM
TGI [31]: > 100 µM
TGI [32]: > 100 µM
TGI [33]: > 100 µM
TGI [34]: > 100 µM
TGI [35]: > 100 µM
TGI [36]: > 100 µM
TGI [37]: > 100 µM
TGI [38]: > 100 µM
TGI [39]: > 100 µM
TGI [58]: > 100 µM
TGI [40]: > 100 µM
TGI [41]: > 100 µM
TGI [42]: > 100 µM
TGI [43]: > 100 µM
TGI [44]: > 100 µM
TGI [45]: > 100 µM
TGI [59]: > 100 µM
TGI [47]: > 100 µM
TGI [49]: > 100 µM
TGI [50]: > 100 µM
TGI [51]: > 100 µM
TGI [52]: > 100 µM
TGI [53]: > 100 µM
TGI [54]: > 100 µM
TGI [55]: > 100 µM
TGI [56]: > 100 µM
